Molecular target: T1, human indoleamine 2,3-dioxygenase 1 (hIDO1) (Homo sapiens, UniProt P14902)
T1 construct: up-regulate the expression of endogenous IDO1 under the induction of human IFN-γ; endogenous in cells; host or cells: HeLa cells stimulated with human IFN-γ
Test: Inhibitory activity test at cellular level: IFN-γ-induced HeLa cells, kynurenine colour reaction
Type: cell-based
Conditions: 48 hours; for inhibition at 0.1 µM: 50 ng/ml human IFN-γ, 200 μM L-tryptophan, each test compound 100 nM, read-out: hIDO1-cell base inhibition rate (%); for EC50: human IFN-γ, read-out: hIDO1-cell base EC50
Text: The subject of this assay was to comprehensively evaluate different compounds on their enzymatic inhibitory activity in vitro and on cell models against human indoleamine 2,3-dioxygenase 1 (hIDO1).
In the present application, the inventors used Hela cells expressing IDO1 induced by IFN-γ as a model, to test the IDO1 inhibitory activity of the compounds at the cellular level.
HeLa cells are human cervical cancer cell lines, which can up-regulate the expression of endogenous IDO1 under the induction of human IFN-γ. By adding the substrate L-tryptophan to cell culture medium, the enzymatic catalysis product kynurenine in cell supernatant was detected. In this experiment, the cultured Hela cells were used and co-incubated with different concentrations of test compounds under stimulation of human IFN-γ for a specified period of time, and the color reaction method of enzyme product and p-dimethylaminobenzaldehyde was used to detect the effect on IDO enzyme activity of cells treated by the test compounds.
(1) Hela cells were inoculated into 96-well culture plates at an appropriate concentration (about 20,000 cells/well). […] The cells were continuously cultured for 48 hours before detection.
(2) 200 μL of the supernatant in the culture well was pipetted out, added with 40 μL of the pre-prepared 30% (w/v) trichloroacetic acid solution, and reacted at 65° C. for 20 minutes, and then centrifuged at 12000 rpm for 15 minutes.
(3) 100 μL of the supernatant after centrifugation was pipetted out, added into a 96-well flat bottom plate, then added with an equal volume of 2% p-dimethylaminobenzaldehyde in glacial acetic acid and mixed well, and stood at room temperature for 10 minutes.
(4) microplate reader (ELX800NB) was used to detect the absorbance value of each well, and the detection wavelength was 492 nm.
In addition, after the cell enzyme activity inhibition rates of test compounds with different concentration gradients were separately calculated, their cell enzyme activity half inhibition concentrations (EC50) were calculated by using EC50 calculator.
According to the above-mentioned experimental method, the compounds of the present application were subjected to IDO1 enzymatic evaluation at cytological level (the concentration of each test compound was all 100 nM).
According to the above-mentioned experimental method, the compound of the present application was subjected to hIDO1-cell base EC50 detection.

T1 sequence (P14902 whole entry): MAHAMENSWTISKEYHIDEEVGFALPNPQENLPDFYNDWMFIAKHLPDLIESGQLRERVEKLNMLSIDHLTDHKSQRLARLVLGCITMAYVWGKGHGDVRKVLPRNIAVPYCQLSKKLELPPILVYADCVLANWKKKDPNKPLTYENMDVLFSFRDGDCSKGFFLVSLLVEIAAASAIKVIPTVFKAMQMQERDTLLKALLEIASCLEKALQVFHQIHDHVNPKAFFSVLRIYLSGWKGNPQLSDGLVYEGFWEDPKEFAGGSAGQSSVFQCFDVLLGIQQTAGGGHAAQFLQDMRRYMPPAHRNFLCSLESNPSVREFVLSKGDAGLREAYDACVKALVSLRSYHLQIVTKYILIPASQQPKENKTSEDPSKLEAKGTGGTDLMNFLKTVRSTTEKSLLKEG

| inhibition at 0.1 µM [%] | EC50 [µM] | Compound |
| --- | --- | --- |
| 85 |  | CC(C(=O)Nc1ccccc1)N1CC2C(C1)C2Nc1ccnc2ccc(F)cc12 (centres unmarked) [Example 74, 2-(6-((6-fluoroquinolin-4-yl)amino)-3-aza-bicyclo[3.1.0]hexan-3-yl)-N-phenyl-propionamide] |
| 49 |  | CC(C(=O)Nc1ccc(Cl)cc1)N1CC2C(COc3ccnc4ccc(F)cc34)C2C1 (centres unmarked) [Example 46, N-(4-chlorophenyl)-2-(6-(((6-fluoroquinolin-4-yl)oxo)methyl)-3-aza-bicyclo[3.1.0]hexan-3-yl)propionamide] |
| 10 |  | O=C(Nc1ccc2c(c1)OCCO2)N1CC2(CC(Oc3ccnc4ccc(F)cc34)C2)C1 [Example 33, N-(2,3-dihydrobenzo[b][1,4]dioxin-6-yl)-6-((6-fluoroquinolin-4-yl)oxy)-2-aza-spiro[3.3]heptan-2-carboxamide] |
| 49 |  | COc1cccc(NC(=O)N2CC3(CC(Oc4ccnc5ccc(F)cc45)C3)C2)c1 [Example 4, N-(3-methoxyphenyl)-6-((6-fluoroquinolin-4-yl)oxy)-2-aza-spiro[3.3]heptan-2-carboxamide] |
| 31 |  | O=C(/C=C/c1ccc(Cl)cc1)N1CC2(CC(Oc3ccnc4ccc(F)cc34)C2)C1 [Example 7, (E)-3-(4-chlorophenyl)-1-(6-((6-fluoroquinolin-4-yl)oxy)-2-aza-spiro[3.3]heptan-2-yl)prop-2-en-1-one] |
| 42 |  | O=C(Nc1ccc(Cl)cc1)C(CO)N1CC2C(C1)C2Nc1ccnc2ccc(F)cc12 (centres unmarked) [Example 78, N-(4-chlorophenyl)-2-(6-((6-fluoroquinolin-4-yl)amino)-3-aza-bicyclo[3.1.0]hexan-3-yl)-3-hydroxypropionamide] |
| 11 |  | O=C(Nc1ccc(F)cc1)N1CC2C(C1)C2Oc1ccnc2ccc(F)cc12 (centres unmarked) [Example 30, N-(4-fluorophenyl)-6-((6-fluoroquinolin-4-yl)oxy)-3-aza-cyclo[3.1.0]hexan-3-carboxamide] |
| 90 |  | COC/C=C/c1ccc(NC(=O)N2CC3(CC(Oc4ccnc5ccc(F)cc45)C3)C2)cc1 [Example 10] |
| 85 | 0.033 | O=C(Nc1ccc(F)cc1)N1CC2(CC(Oc3ccnc4ccc(F)cc34)C2)C1 [Example 16, N-(4-fluorophenyl)-6-((6-fluoroquinolin-4-yl)oxy)-2-aza-spiro[3.3]heptan-2-carboxamide] |
| 69 |  | CC(C(=O)Nc1ccc(Cl)cc1)N1CC2(CC(Nc3ccnc4ccc(F)cc34)C2)C1 (centres unmarked) [Example 54, N-(4-chlorophenyl)-2-(6-((6-fluoroquinolin-4-yl)amino)-2-aza-spiro[3.3]heptan-2-yl)propionamide] |
| 63 |  | COc1ccc(NC(=O)N2CC3(CC(Oc4ccnc5ccc(F)cc45)C3)C2)cc1 [Example 5, N-(4-methoxyphenyl)-6-((6-fluoroquinolin-4-yl)oxy)-2-aza-spiro[3.3]heptan-2-carboxamide] |
| 18 |  | O=C(NCc1ccc(Cl)cc1)N1CC2(CC(Oc3ccnc4ccc(F)cc34)C2)C1 [Example 15, N-(4-chlorobenzyl)-6-((6-fluoroquinolin-4-yl)oxy)-2-aza-spiro[3.3]heptan-2-carboxamide] |
| 91 | 0.02 | CC(C(=O)Nc1ccc(Cl)cc1)N1CC2(CC(Oc3ccnc4ccc(F)cc34)C2)C1 (centres unmarked) [Example 39, N-(4-chlorophenyl)-2-(6-((6-fluoroquinolin-4-yl)oxo)-2-aza-spiro[3.3]heptan-2-yl)propionamide] |
| 96 |  | CC(C(=O)Nc1ccc(Cl)cc1)N1CCC2CN(c3ccnc4ccc(F)cc34)CC2C1 (centres unmarked) [Example 64, N-(4-chlorophenyl)-2-(2-(6-fluoroquinolin-4-yl)octahydro-5H-pyrrolo[3,4-c]pyridin-5-yl)propionamide] |
| 59 |  | COc1cccc(NC(=O)C(C)N2CCC3CN(c4ccnc5ccc(F)cc45)CC3C2)c1 (centres unmarked) [Example 65, 2-(2-(6-fluoroquinolin-4-yl)octahydro-5H-pyrrolo[3,4-c]pyridin-5-yl)-N-(3-methoxyphenyl)propionamide] |
| 44 |  | O=C(Nc1ccc2c(c1)CCO2)N1CC2(CC(Oc3ccnc4ccc(F)cc34)C2)C1 [Example 32, N-(2,3-dihydrobenzofuran-5-yl)-6-((6-fluoroquinolin-4-yl)oxy)-2-aza-spiro[3.3]heptan-2-carboxamide] |

| inhibition at 0.1 µM [%] | EC50 [µM] | Compound |
| --- | --- | --- |
| 83 |  | COc1ccc(NC(=O)C(C)N2CC3C(C2)C3Nc2ccnc3ccc(F)cc23)cc1 (centres unmarked) [Example 73, 2-(6-((6-fluoroquinolin-4-yl)amino)-3-aza-bicyclo[3.1.0]hexan-3-yl)-N-(4-methoxyphenyl)propionamide] |
| 15 |  | O=C(Nc1ccc(Cl)cc1)N1CC2(CC(Oc3cnc4ccccc4c3)C2)C1 [Example 26, N-(4-chlorophenyl)-6-(quinolin-3-yloxy)-2-aza-spiro[3.3]heptan-2-carboxamide] |
| 90 |  | COc1ccc(NC(=O)C(C)N2CCC3CN(c4ccnc5ccc(F)cc45)CC3C2)cc1 (centres unmarked) [Example 66, 2-(2-(6-fluoroquinolin-4-yl)octahydro-5H-pyrrolo[3,4-c]pyridin-5-yl)-N-(4-methoxyphenyl)propionamide] |
| 99 | 0.005 | CC(C(=O)Nc1ccc(Cl)cc1)N1CC2C(C1)C2Oc1ccnc2ccc(F)cc12 (centres unmarked) [Example 49, N-(4-chlorophenyl)-2-(6-((6-fluoroquinolin-4-yl)oxo)-3-aza-bicyclo[3.1.0]hexan-3-yl)propionamide] |
| 10 |  | O=C(Nc1ccc(Cl)cc1)N1CC2(CC(Oc3ncnc4ccccc34)C2)C1 [Example 29, N-(4-chlorophenyl)-6-(quinazolin-4-yloxy)-2-aza-spiro[3.3]heptan-2-carboxamide] |
| 23 |  | CC(C(=O)Nc1cccnc1)N1CC2(CC(Oc3ccnc4ccc(F)cc34)C2)C1 (centres unmarked) [Example 41, 2-(6-((6-fluoroquinolin-4-yl)oxo)-2-aza-spiro[3.3]heptan-2-yl)-N-(pyridin-3-yl)propionamide] |
| 94 |  | CC(C(=O)Nc1ccccc1)N1CCC2CN(c3ccnc4ccc(F)cc34)CC2C1 (centres unmarked) [Example 67, 2-(2-(6-fluoroquinolin-4-yl)octahydro-5H-pyrrolo[3,4-c]pyridin-5-yl)-N-phenyl-propionamide] |
| 25 |  | O=C(CNc1ccccc1)N1CC2(CC(Oc3ccnc4ccc(F)cc34)C2)C1 [Example 11, 1-(6-((6-fluoroquinolin-4-yl)oxy)-2-aza-cyclo[3.3]heptan-2-yl)-2-(anilino)ethyl-1-one] |
| 26 |  | O=C(Nc1ccc(Cl)cc1)N1CC2(CC(Oc3nccc4ccccc34)C2)C1 [Example 36, N-(4-chlorophenyl)-6-(isoquinolin-1-yloxy)-2-aza-spiro[3.3]heptan-2-carboxamide] |
| 74 | 0.026 | O=C(Nc1ccc(Cl)cc1)N1CC2(CC(Oc3ccnc4ccccc34)C2)C1 [Example 23, N-(4-chlorophenyl)-6-(quinolin-4-yloxy)-2-aza-spiro[3.3]heptan-2-carboxamide] |
| 85 | 0.025 | CC(C(=O)Nc1ccc(Cl)cc1)N1CC2(CC(N(C)c3ccnc4ccc(F)cc34)C2)C1 (centres unmarked) [Example 59, N-(4-chloro)-2-(6-((6-fluoroquinolin-4-yl)(methyl)amino)-2-aza-spiro[3.3]heptan-2-yl)propionamide] |
| 87 | 0.036 | O=C(c1ccc(Cl)cc1)N1CC2(CC(Oc3ccnc4ccc(F)cc34)C2)C1 [Example 6, (4-chlorophenyl)(6-((6-fluoroquinolin-4-yl)oxy)-2-aza-spiro[3.3]heptan-2-yl) methanone] |
| 46 |  | O=C(Nc1ccc(Cl)cc1)N1CC2C(C1)C2Oc1ccnc2ccc(F)cc12 (centres unmarked) [Example 31, N-(4-chlorophenyl)-6-((6-fluoroquinolin-4-yl)oxy)-3-aza-cyclo[3.1.0]hexan-3-carboxamide] |
| 45 |  | CC(C(=O)Nc1ccc(Cl)cc1)N1CC2CC(Nc3ccnc4ccc(F)cc34)CC2C1 (centres unmarked) [Example 83, N-(4-chlorophenyl)-2-(5-((6-fluoroquinolin-4-yl)amino)hexahydro-cyclopenta[c]pyrrol-2(1H)-yl)propionamide] |
| 19 |  | CC(C(=O)NC1CCCCC1)N1CC2(CC(Oc3ccnc4ccc(F)cc34)C2)C1 (centres unmarked) [Example 40, N-cyclohexyl-2-(6-((6-fluoroquinolin-4-yl)oxo)-2-aza-spiro[3.3]heptan-2-yl)propionamide] |
| 61 |  | O=C(Nc1ccc(Cl)cc1)N1CC2(CCC(Nc3ccnc4ccc(F)cc34)C2)C1 (centres unmarked) [Example 19] |

— US12551478B2, “Quinoline derivative having indoleamine-2,3-dioxygenase inhibitory activity” (SHENZHEN CHIPSCREEN BIOSCIENCES CO., LTD., priority 2018, dated 2026)
